According to patent US20200061212A1, “SOLID ORAL COMPOSITION CONTAINING DYES” (COSMO TECHNOLOGIES LTD., priority 2016, published 2020):

How the values were obtained:
[1] = test system: subjects undergoing screening or surveillance colonoscopy; test: Phase III placebo-controlled trial: Adenoma or Carcinoma detection rate and false positive rate at HD white light colonoscopy; assay type: in vivo, human; conditions: for ADR: Difference in Proportions of Methylene Low Dose vs. Placebo: 100 mg; for ADR: Difference in Proportions of Methylene Full Dose vs. Methylene Blue Low Dose: 200 mg vs 100 mg; for False Positive Rate: subjects with excisions and without any histologically proven Adenoma or Carcinoma, %: % of subjects with excision
Text: The detection rate was defined as the proportion of patients with at least one histologically proven Adenoma or Carcinoma.
In other words, in the study the standard of care (white light endoscopy) and the chromoendoscopy by oral administration of the MB tablets were compared. In the acquisition and recording of the colonoscopies, the latest and more technologically advanced, high definition (HD) endoscopes were used. Thus, the study allowed the direct comparison of the effect of the MB tablets on the adenoma or carcinoma detection rate to the current gold standard colonoscopy, i.e. the high definition (HD) white light colonoscopy. For this reason, in the context of the present example, the terms “placebo”, “white light high definition endoscopy” (WLHD) and “white light endoscopy” can be used interchangeably, and definitively indicate the current standard of care for the endoscopic examination of the colon. Due to the unavoidable impossibility to obtain double-blinding for the clinical study, since the endoscopist performing the colonoscopy was able to see if the colon was blue colored or unstained, an additional, underpowered, masking group was introduced. […] These patients had the colon stained in blue, but were not taken into account in the calculation of the study parameters. In this way, while performing the colonoscopy, the endoscopist was not aware if a patient belonged to the group of the full dose (whose patients were part of the statistical calculation) or to the “masking” group (whose patients received a lower dose of the composition and were not part of the statistical analysis).
Subjects aged between 50 and 75 years undergoing full colonoscopy for screening or surveillance of colorectal cancer were recruited.
Diet: In preparation for the colonoscopy patients adopted a low residue diet for three days prior to the colonoscopy. On the third day of the low residue diet patients must fast for at least 3 hours before starting intake of the bowel prep and study drug.
Bowel cleansing preparation: all subjects received a full dose regimen of 4 liters PEG-based bowel cleansing preparation starting in the late afternoon (after 6 pm) before the colonoscopy day. The subjects drank at least 250 mL of solution every 15 min, so that the intake of the cleansing preparation, and study drug were completed in 4 hours.
Dose regimen: The subjects were randomized 2:2:1 into three groups.
All the patients participating to the study, regardless of whether they belonged to Group one, Group two or Group three, received a timetable detailing the volumes of bowel cleansing preparation to be consumed, and the times to be respected:
The subjects had to drink about 250 mL of bowel cleansing preparation every 15 minutes, equivalent to 1 liter of bowel cleansing preparation every hour. The timeframe between an oral administration of tablets and the following one had to be 1 hour.
Adenoma was defined as a histologically proven Vienna Grade 3 to 4.2 or a histologically proven traditional serrated adenoma (TSA), or a histologically proven sessile serrated adenoma (SSA). Histologically proven Carcinoma was defined as Vienna Grade 4.3 to 5b.
Day of colonoscopy 02: patients returned to the clinic for the colonoscopy. The colonoscopy was performed using high definition (HD) colonoscope. Narrow-Band-Imaging (NBI) and all other electronic chromoendoscopy and contrast enhancement techniques, as well as zoom endoscopy or magnification were not permitted. The endoscopist performed the full colonoscopy and recorded and removed all the detected adenoma and/or carcinoma. The endoscopist recorded the morphology and size and classified the found polyps, adenomas and carcinomas, and recorded the pit pattern according to the Paris and Kudo's classification and following the endoscopy charter.

P-gp [2] = target: T1, P-gp (Homo sapiens, UniProt P08183); test: in vitro transporter substrate study; assay type: in vitro ADME; conditions: in vitro studies
T1 sequence (P08183 whole entry): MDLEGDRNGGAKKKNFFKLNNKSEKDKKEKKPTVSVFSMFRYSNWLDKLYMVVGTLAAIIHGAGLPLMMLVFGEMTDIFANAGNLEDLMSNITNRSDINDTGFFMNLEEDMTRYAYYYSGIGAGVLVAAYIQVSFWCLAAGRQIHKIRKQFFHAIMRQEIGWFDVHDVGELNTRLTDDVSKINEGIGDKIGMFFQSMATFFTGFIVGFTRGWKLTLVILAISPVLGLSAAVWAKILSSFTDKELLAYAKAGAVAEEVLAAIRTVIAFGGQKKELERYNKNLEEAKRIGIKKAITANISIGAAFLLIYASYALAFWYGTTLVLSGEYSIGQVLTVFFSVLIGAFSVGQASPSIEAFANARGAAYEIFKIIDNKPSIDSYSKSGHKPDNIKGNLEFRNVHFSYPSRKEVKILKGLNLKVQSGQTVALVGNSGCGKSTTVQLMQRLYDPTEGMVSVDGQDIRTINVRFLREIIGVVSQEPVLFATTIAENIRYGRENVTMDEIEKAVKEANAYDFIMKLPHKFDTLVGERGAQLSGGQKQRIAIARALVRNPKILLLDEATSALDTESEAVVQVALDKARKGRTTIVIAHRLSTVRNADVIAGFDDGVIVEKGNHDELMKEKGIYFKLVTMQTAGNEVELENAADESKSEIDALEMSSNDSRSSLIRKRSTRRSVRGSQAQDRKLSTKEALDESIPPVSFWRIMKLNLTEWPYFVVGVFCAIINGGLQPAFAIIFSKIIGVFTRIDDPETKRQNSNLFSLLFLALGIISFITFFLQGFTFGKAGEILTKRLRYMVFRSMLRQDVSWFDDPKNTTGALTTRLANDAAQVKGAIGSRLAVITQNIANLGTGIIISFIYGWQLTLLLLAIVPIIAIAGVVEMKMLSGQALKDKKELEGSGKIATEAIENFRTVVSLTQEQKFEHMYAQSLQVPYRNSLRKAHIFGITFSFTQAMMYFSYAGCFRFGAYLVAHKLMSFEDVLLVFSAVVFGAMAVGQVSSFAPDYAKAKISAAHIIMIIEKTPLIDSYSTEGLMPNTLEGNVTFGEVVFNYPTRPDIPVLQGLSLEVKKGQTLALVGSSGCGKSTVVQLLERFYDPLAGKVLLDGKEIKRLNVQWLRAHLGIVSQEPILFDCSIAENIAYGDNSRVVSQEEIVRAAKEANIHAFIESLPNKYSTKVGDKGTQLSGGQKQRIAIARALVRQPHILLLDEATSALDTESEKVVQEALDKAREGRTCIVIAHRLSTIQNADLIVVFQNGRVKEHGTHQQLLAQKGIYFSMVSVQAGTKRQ

P-gp [3] = target: T1, P-gp; test: in vitro transporter inhibition study; assay type: in vitro ADME; conditions: in vitro studies
[4] = low dose 100 mg, Per Protocol N=225
[5] = patients with number of excisions 0-1, FAS
[6] = patients with number of excisions 0-1, PP
[7] = patients with number of excisions ≤3, FAS
[8] = patients with number of excisions ≤3, PP

substrate of the membrane transport protein P-gp (P-gp [2]): possible substrate
inhibition of P-gp (P-gp [3]): weak inhibitor
induction of CYP isozyme 1A2 (CYP 1A2): induces
induction of CYP isozyme 2B6 (CYP 2B6): induces
SMILES: CN(C)c1ccc2nc3ccc(=[N+](C)C)cc-3sc2c1 [Methylene blue, Methylthioninium Chloride (Methylene Blue)]
ADR: Difference in Proportions of Methylene Low Dose vs. Placebo ([1]; FAS): 3.64
ADR: Difference in Proportions of Methylene Low Dose vs. Placebo ([1]; Per Protocol): 5.86
ADR: Difference in Proportions of Methylene Full Dose vs. Methylene Blue Low Dose ([1]; FAS): 4.84
ADR: Difference in Proportions of Methylene Full Dose vs. Methylene Blue Low Dose ([1]; Per Protocol): 4.46
ADR: Difference in Proportions of Methylene Blue Full Dose vs. Placebo ([1]; 200 mg, FAS): 8.48
Absolute difference in ADR between methylene blue full dose and placebo ([1]; 200 mg, FAS): 8.48%
Percent decrease in FPR for methylene full dose vs placebo ([1]; 200 mg, FAS): 21.6%
Percent increase in ADR for methylene full dose vs placebo ([1]; 200 mg, FAS): 17.7%
Percent decrease in FPR for methylene full dose vs placebo ([1]; 200 mg, PP): 24.8%
ADR: Difference in Proportions of Methylene Blue Full Dose vs. Placebo ([1]; 200 mg, Per Protocol): 10.32
Absolute difference in ADR between methylene blue full dose and placebo ([1]; 200 mg, Per Protocol): 10.32%
Percent increase in ADR for methylene blue full dose vs placebo ([1]; 200 mg, Per Protocol): 21.5%
Absolute difference in proportion of subjects between methylene blue full dose and placebo, Table 14 (non-polypoid lesions) ([1]; FAS): 8.83%
Absolute difference in proportion of subjects with diminutive adenomas between methylene blue full dose and placebo ([1]; FAS): 6.21%
Difference in False Positive Rates of Methylene Blue Full Dose vs. Methylene Blue Low Dose ([1]; FAS): −2.88
Difference in False Positive Rates of Methylene Blue Full Dose vs. Placebo ([1]; FAS): −6.44
Difference in False Positive Rates of Methylene Blue Low Dose vs. Placebo ([1]; FAS): −3.56
Percent increase in proportion of subjects for methylene blue full dose vs placebo, Table 14 (non-polypoid lesions) ([1]; FAS): 25.2%
Percent increase in proportion of subjects with diminutive adenomas for methylene blue full dose vs placebo ([1]; FAS): 20.1%
ADR, % ([1]; Number of excisions 0-1, low dose 100 mg, FAS): 20.83%
ADR, % ([1]; Number of excisions 4-6, full dose 200 mg, FAS): (85.06) %
ADR, % ([1]; Number of excisions 4-6, low dose 100 mg, FAS): 87.80%
ADR, % ([1]; Number of excisions >6, full dose 200 mg, FAS): (97.22) %
ADR, % ([1]; Number of excisions >6, low dose 100 mg, FAS): 100.00%
ADR, % ([1]; Number of excisions ≤3, low dose 100 mg, FAS): 38.12%
Difference in False Positive Rates of Methylene Blue Full Dose vs. Methylene Blue Low Dose ([1]; Per Protocol): −3.03
Difference in False Positive Rates of Methylene Blue Full Dose vs. Placebo ([1]; Per Protocol): −7.51
Difference in False Positive Rates of Methylene Blue Low Dose vs. Placebo ([1]; Per Protocol): −4.49
Absolute difference in proportion of subjects with a histologically proven adenoma between methylene blue full dose and placebo ([1]; excluding carcinoma, FAS): 9.33%
Percent increase in proportion of subjects with a histologically proven adenoma for methylene blue full dose vs placebo ([1]; excluding carcinoma, FAS): 20.3%
Percentage of subjects with a histologically proven adenoma (excluding carcinoma) ([1]; full dose 200 mg, FAS N=485): 55.26%
Percentage of subjects with diminutive adenomas ([1]; full dose 200 mg, FAS N=485): 37.11%
Percentage of subjects with non-polypoid lesions ([1]; full dose 200 mg, FAS N=485): 43.92%
Subjects with excision, % ([1]; full dose 200 mg, FAS N=485): (73.40) %
Total number of subjects with a histologically proven adenoma (excluding carcinoma) ([1]; full dose 200 mg, FAS N=485): 268
Total number of subjects with diminutive adenomas ([1]; full dose 200 mg, FAS N=485): 180
Total number of subjects with non-polypoid lesions ([1]; full dose 200 mg, FAS N=485): 213
ADR in patients with number of excisions 0-1 ([1]; full dose 200 mg, PP): 25.32%
ADR in patients with number of excisions ≤3 ([1]; full dose 200 mg, PP): 68.24%
Subjects with excision, % ([1]; full dose 200 mg, Per Protocol N=455): (75.38) %
Subjects with at least one histologically proven Adenoma or Carcinoma (ADR), % ([1]; low dose 100 mg (MB tablets of Example 6), FAS N=241): 51.45%
Subjects with excision, % ([1]; low dose 100 mg, FAS N=241): 69.71%
False Positive Rate: subjects with excisions and without any histologically proven Adenoma or Carcinoma, % ([1]; low dose 100 mg, FAS): 26.19%
Subjects with at least one histologically proven Adenoma or Carcinoma (ADR), % [1, 4]: 53.78%
Subjects with excision, % [1, 4]: 72.44%
False Positive Rate: subjects with excisions and without any histologically proven Adenoma or Carcinoma, % ([1]; low dose 100 mg, Per Protocol): 25.77%
Absolute difference in ADR between methylene blue full dose and placebo [1, 5]: 7.24%
Percent increase in ADR for methylene full dose vs placebo [1, 5]: 38.2%
Absolute difference in ADR between methylene blue full dose and placebo [1, 6]: 9.15%
Percent increase in ADR for methylene full dose vs placebo [1, 6]: 45.4%
Absolute difference in ADR between methylene blue full dose and placebo [1, 7]: 9.40%
Percent increase in ADR for methylene full dose vs placebo [1, 7]: 26.2%
Absolute difference in ADR between methylene blue full dose and placebo [1, 8]: 11.47%
Percent increase in ADR for methylene full dose vs placebo [1, 8]: 40.8%
